Assay results published in patent publication US20230366033A1, “METHODS FOR TREATING CANCERS WITH INHIBITORS TARGETING THE ROLE OF GRB2 IN DNA REPAIR” (Board of Regents, The University of Texas System, priority 2020, published 2023).

Experiments:
Type in all cases: cell-based
GRB2-KO HeLa cells [1] = assay: Clonogenic survival assay with olaparib; conditions: cultured for 10 days
Text: (§1) FIGS. 7A-7F. GRB2 KO sensitizes cells to PARPi. (FIG. 7A) MRE11 depletion levels with two different shRNA (KD1 and KD2) in U2OS cells with normal level of GRB2 (Ctrl) and GRB2-knockout (KO). (FIG. 7B) DR-GFP reporter assay in MRE11 knockdown control (Ctrl) and GRB2-KO U2OS cells. (FIG. 7C) DR-GFP reporter assay in PTEN-knockdown and/or GRB2-KO U2OS cells. (FIG. 7D) SRB assay of olaparib-induced cytotoxicity in control HeLa cells, GRB2-KO cells and GRB2-KO cells reconstituted with WT or K109R mutant GRB2. IC50 values are shown. (FIG. 7E) Clonogenic assay evaluating the effect of a PARPi on colony formation of HeLa cells. Cells were treated with the indicated concentrations of the PARPi olaparib and cultured for 10 days, then the resulting colonies were visualized with crystal violet staining and counted by Gelcount instrument. Parental control (WT), GRB2-KO (KO), ^WTGRB2 (KO+GRB2) and ^K109RGRB2 (KO+K109R) reconstituted HeLa cells. For each concentration on the X-axis, the columns represent, from left to right, WT, GRB2 KO, KO+GRB2, and KO+K109R. ***, p≤0.001; NS, not significant. […] The significance was analyzed by two-sided student's t-test. *, p≤0.05; **, p≤0.01; ***, p≤0.001; NS, not significant. […]

[2] = tested on: K109R GRB2 reconstituted HeLa cells; assay: Clonogenic survival assay with olaparib; conditions: cultured for 10 days
Text: as §1

[3] = tested on: GRB2-KO HeLa cells reconstituted with WT GRB2; assay: SRB assay of olaparib-induced cytotoxicity; conditions: Homo sapiens, GRB2-KO cells reconstituted with WT GRB2, sulforhodamine B assay
Text: (§2) FIGS. 7A-7F. GRB2 KO sensitizes cells to PARPi. (FIG. 7A) MRE11 depletion levels with two different shRNA (KD1 and KD2) in U2OS cells with normal level of GRB2 (Ctrl) and GRB2-knockout (KO). (FIG. 7B) DR-GFP reporter assay in MRE11 knockdown control (Ctrl) and GRB2-KO U2OS cells. (FIG. 7C) DR-GFP reporter assay in PTEN-knockdown and/or GRB2-KO U2OS cells. (FIG. 7D) SRB assay of olaparib-induced cytotoxicity in control HeLa cells, GRB2-KO cells and GRB2-KO cells reconstituted with WT or K109R mutant GRB2. IC50 values are shown. (FIG. 7E) Clonogenic assay evaluating the effect of a PARPi on colony formation of HeLa cells. Cells were treated with the indicated concentrations of the PARPi olaparib and cultured for 10 days, then the resulting colonies were visualized with crystal violet staining and counted by Gelcount instrument. Parental control (WT), GRB2-KO (KO), ^WTGRB2 (KO+GRB2) and ^K109RGRB2 (KO+K109R) reconstituted HeLa cells. For each concentration on the X-axis, the columns represent, from left to right, WT, GRB2 KO, KO+GRB2, and KO+K109R. ***, p≤0.001; NS, not significant. (FIG. 7F) Bar graph representing Annexin-V/propidium iodide combined labeling and flow cytometry analysis of olaparib-treated control (WT), GRB2-KO, reconstituted ^WTGRB2(KO+GRB2) and K109R mutant (KO+K109R) HeLa cells. Cells were treated with either DMSO or 50 μM olaparib for 72 h. For each treatment group on the X-axis, the columns represent, from left to right, WT, GRB2 KO, KO+GRB2, and KO+K109R. All data are representative of three independent experiments. The significance was analyzed by two-sided student's t-test. *, p≤0.05; **, p≤0.01; ***, p≤0.001; NS, not significant.
(§3) Cell culture. HEK293T, NIH3T3 and A431 cells (purchased from ATCC) and mouse embryonic fibroblasts (MEFs) and H2AX-KO MEFs (gifts from Andre Nussenzweig, Center for Cancer Research, National Cancer Institute) were maintained in Dulbecco's modified Eagle's high-glucose medium (DMEM). HeLa cells (ATCC) were maintained in RPMI 1640 medium, HAP1 cells (Horizon Discovery) were maintained in Iscove's Modified Dulbecco's medium. U2OS cells (ATCC) were maintained in McCoy's 5A medium. Media were supplemented with 10% (vol/vol) fetal bovine serum (FBS) and 1% antibiotic/antimycotic (Lonza) in a humidified incubator with 10% CO2. Stable HEK293T cells containing Strep-tagged GRB2 or GRB2 mutants were produced as described previously (Ahmed et al., 2013). The I-SecI reporter assay (a generous gift from Jeremy Stark, City of Hope) was performed as described previously(Gunn and Stark, 2012). The sulforhodamine B (SRB) cytotoxicity and colony formation assays were performed as described previously(Houl et al., 2019).

[4] = tested on: GRB2-KO HeLa cells reconstituted with K109R mutant GRB2; assay: SRB assay of olaparib-induced cytotoxicity; conditions: Homo sapiens, GRB2-KO cells reconstituted with K109R GRB2, sulforhodamine B assay
Text: as §2, §3

control HeLa cells = assay: SRB assay of olaparib-induced cytotoxicity; conditions: Homo sapiens; WT control HeLa cells, sulforhodamine B assay
Text: as §2, §3

GRB2-KO HeLa cells [5] = assay: SRB assay of olaparib-induced cytotoxicity; conditions: sulforhodamine B assay
Text: as §2, §3

control (WT) HeLa cells = assay: Annexin V/PI staining assay, flow cytometry; conditions: 50 μM olaparib for 72 h
Text: as §2
(§4) Annexin V/PI staining assay. To determine the percentage of olaparib-induced apoptotic cells, an Annexin V-propidium iodide (PI) staining assay was used according to the standard protocol (Life Technologies). […] After incubation for 15 min at room temperature in the dark, samples were analyzed on a flow cytometer (FACSCanto IL, BD Biosciences) for the detection of Annexin V- and PI-positive subpopulations. […]

GRB2-KO HeLa cells [6] = assay: Annexin V/PI staining assay, flow cytometry; conditions: 50 μM olaparib for 72 h
Text: as §2, §4

[7] = tested on: K109R mutant (KO+K109R) HeLa cells; assay: Annexin V/PI staining assay, flow cytometry; conditions: K109R GRB2 reconstituted cells, 50 μM olaparib for 72 h
Text: as §2, §4

O=C(c1cc(Cc2n[nH]c(=O)c3ccccc23)ccc1F)N1CCN(C(=O)C2CC2)CC1 [olaparib]
colony formation in response to olaparib (GRB2-KO HeLa cells [1]): severe reduction in colony formation
colony formation in response to olaparib [2]: severe reduction in colony formation
IC50 [3]: 164 ± 47 µM
IC50 [4]: 20 ± 3 µM
IC50 (control HeLa cells): 124 ± 41 µM
IC50 (GRB2-KO HeLa cells [5]; Homo sapiens, HeLa, GRB2-KO cells): 18 ± 2.9 µM
sensitivity to olaparib, GRB2-KO cells versus WT control cells (GRB2-KO HeLa cells [5]): 7 times
olaparib-induced apoptosis (control (WT) HeLa cells): 20%
olaparib-induced apoptosis (GRB2-KO HeLa cells [6]): 60%
olaparib-induced apoptosis phenotype [7]: failed to rescue the phenotype
